# In patent publication US20240398828A1, “HETERO-ATOM CONTAINING COMPOUNDS AND USES THEREOF” (Kumquat Biosciences Inc., priority 2021, published 2024):
# What was measured:
# PTPN2 (i.e., TC-PTP) = molecular target: T1, PTPN2 (i.e., TC-PTP) (Homo sapiens, UniProt P17706); assay: Phosphatase activity assay (DiFMUP substrate), PTPN2; assay type: biochemical; conditions: compounds binned ≤1 uM or >1 uM
# T1 sequence (P17706 1-415): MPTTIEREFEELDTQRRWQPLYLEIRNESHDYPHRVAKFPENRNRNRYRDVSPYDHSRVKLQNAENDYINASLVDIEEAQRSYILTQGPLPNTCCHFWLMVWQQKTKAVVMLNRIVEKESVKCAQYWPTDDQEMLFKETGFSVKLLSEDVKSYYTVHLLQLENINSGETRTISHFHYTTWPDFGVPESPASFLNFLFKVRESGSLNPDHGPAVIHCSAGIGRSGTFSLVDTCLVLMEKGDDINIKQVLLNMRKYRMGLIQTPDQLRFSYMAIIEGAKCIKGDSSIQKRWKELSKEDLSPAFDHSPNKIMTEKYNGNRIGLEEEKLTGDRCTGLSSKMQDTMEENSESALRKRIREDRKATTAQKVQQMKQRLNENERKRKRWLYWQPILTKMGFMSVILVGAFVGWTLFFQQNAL
# In short: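 RT, HEPES pH 7.5 buffer with DTT/Tween-20. 10-point inhibitor series premixed ~2 min with enzyme (PTPN2 0.025 ng/ul). Start with DiFMUP at enzyme Km (~45 μM for PTPN2). Read DiFMU ex360/em450 continuously 15–30 min; initial rate vs concentration, 4-parameter fit → IC50.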
# PTPN1 (i.e., PTP1B) = molecular target: T2, PTPN1 (i.e., PTP1B) (Homo sapiens, UniProt P18031); assay: Phosphatase activity assay (DiFMUP substrate), PTP1B; assay type: biochemical; conditions: compounds binned ≤1 uM or >1 uM
# T2 sequence (P18031 1-435): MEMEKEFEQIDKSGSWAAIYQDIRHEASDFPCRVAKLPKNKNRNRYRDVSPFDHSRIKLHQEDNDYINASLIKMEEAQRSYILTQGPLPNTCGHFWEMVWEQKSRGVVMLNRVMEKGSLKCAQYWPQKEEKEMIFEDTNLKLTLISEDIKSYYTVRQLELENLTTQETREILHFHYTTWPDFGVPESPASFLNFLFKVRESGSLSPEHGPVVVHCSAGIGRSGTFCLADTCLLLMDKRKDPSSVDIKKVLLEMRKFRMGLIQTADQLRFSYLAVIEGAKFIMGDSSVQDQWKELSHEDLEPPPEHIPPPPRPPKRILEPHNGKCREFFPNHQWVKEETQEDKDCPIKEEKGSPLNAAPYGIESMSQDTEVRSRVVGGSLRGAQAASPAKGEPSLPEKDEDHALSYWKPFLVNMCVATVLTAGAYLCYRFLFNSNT
# In short: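 First, serially diluted inhibitor is mixed about 2 minutes with enzyme in pH 7.5 HEPES/NaCl/EDTA/DTT/Tween-20 buffer. Next, DiFMUP is added at the enzyme's Km, approximately 45 μM for PTPN2. Finally, DiFMU appearance is read continuously at room temperature and rates are fitted for IC50.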
Compound,"IC50 (PTPN2 (i.e., TC-PTP))","IC50 (PTPN1 (i.e., PTP1B))"
"Cn1nc(-c2ccc(O)c(N3CC(=O)NS3(=O)=O)c2F)cc1CCC#N [Compound 432, 3-(3-(3-(1,1-dioxido-4-oxo-1,2,5-thiadiazolidin-2-yl)-2-fluoro-4-hydroxyphenyl)-1-methyl-1H-pyrazol-5-yl)propanenitrile]",≤ 1 µM,≤ 1 µM
"N#CNC(=N)N1CCC=C(c2ccc(O)c(N3CC(=O)NS3(=O)=O)c2F)C1 [Compound 535, N-cyano-5-(3-(1,1-dioxido-4-oxo-1,2,5-thiadiazolidin-2-yl)-2-fluoro-4-hydroxyphenyl)-3,6-dihydropyridine-1(2H)-carboximidamide]",≤ 1 µM,≤ 1 µM
"CC(C)CCn1cc(-c2ccc(O)c(N3CC(=O)NS3(=O)=O)n2)cn1 [Compound 134, 5-(3-hydroxy-6-(1-isopentyl-1H-pyrazol-4-yl)pyridin-2-yl)-1,2,5-thiadiazolidin-3-one 1,1-dioxide]",> 1 µM,> 1 µM
"NC(=O)C1(c2cc(-c3ccc(O)c(N4CC(=O)NS4(=O)=O)c3F)[nH]n2)CC1 [Compound 517, 1-(5-(3-(1,1-dioxido-4-oxo-1,2,5-thiadiazolidin-2-yl)-2-fluoro-4-hydroxyphenyl)-1H-pyrazol-3-yl)cyclopropane-1-carboxamide]",≤ 1 µM,≤ 1 µM
"O=C1C=C(c2c(O)ccc(-c3cc(C4CC4)n[nH]3)c2F)S(=O)(=O)N1 [Compound 400, 5-(3-(3-cyclopropyl-1H-pyrazol-5-yl)-2-fluoro-6-hydroxyphenyl)isothiazol-3(2H)-one 1,1-dioxide]",≤ 1 µM,≤ 1 µM
"Cc1cc(-c2ccc(O)c(N3CC(=O)NS3(=O)=O)c2F)sn1 [Compound 283, 5-(2-fluoro-6-hydroxy-3-(3-methylisothiazol-5-yl)phenyl)-1,2,5-thiadiazolidin-3-one 1,1-dioxide]",≤ 1 µM,≤ 1 µM
"O=C1CN(c2c(O)ccc(-c3ccn(CC4CCCCC4)c3)c2F)S(=O)(=O)N1 [Compound 272, 5-(3-(1-(cyclohexylmethyl)-1H-pyrrol-3-yl)-2-fluoro-6-hydroxyphenyl)-1,2,5-thiadiazolidin-3-one 1,1-dioxide]",≤ 1 µM,≤ 1 µM
"CC(C)CCn1cc(-c2cc(O)cc(N3CC(=O)NS3(=O)=O)c2)cn1 [Compound 184, 5-(3-hydroxy-5-(1-isopentyl-1H-pyrazol-4-yl)phenyl)-1,2,5-thiadiazolidin-3-one 1,1-dioxide]",> 1 µM,> 1 µM
"CC(C)S(=O)(=O)Nc1ccc(-c2ccc(O)c(N3CC(=O)NS3(=O)=O)c2F)cc1 [Compound 374, N-(3′-(1,1-dioxido-4-oxo-1,2,5-thiadiazolidin-2-yl)-2′-fluoro-4′-hydroxy-[1,1′-biphenyl]-4-yl)propane-2-sulfonamide]",≤ 1 µM,≤ 1 µM
"O=C1CN(c2c(O)ccc(-c3cc(C(F)F)n[nH]3)c2F)S(=O)(=O)N1 [Compound 337, 5-(3-(3-(difluoromethyl)-1H-pyrazol-5-yl)-2-fluoro-6-hydroxyphenyl)-1,2,5-thiadiazolidin-3-one 1,1-dioxide]",≤ 1 µM,≤ 1 µM
"Cn1cc(-c2ccc(O)c(N3CC(=O)NS3(=O)=O)c2F)nc1N [Compound 503, 5-(3-(2-amino-1-methyl-1H-imidazol-4-yl)-2-fluoro-6-hydroxyphenyl)-1,2,5-thiadiazolidin-3-one 1,1-dioxide]",≤ 1 µM,≤ 1 µM
"COc1cccc(-n2cnc(-c3ccc(O)c(N4CC(=O)NS4(=O)=O)c3F)c2)c1 [Compound 445, 5-(2-fluoro-6-hydroxy-3-(1-(3-methoxyphenyl)-1H-imidazol-4-yl)phenyl)-1,2,5-thiadiazolidin-3-one 1,1-dioxide]",≤ 1 µM,≤ 1 µM
"O=C1CN(c2c(O)ccc(-c3cc(C(=O)N4CCC4)n[nH]3)c2F)S(=O)(=O)N1 [Compound 230, 5-(3-(3-(azetidine-1-carbonyl)-1H-pyrazol-5-yl)-2-fluoro-6-hydroxyphenyl)-1,2,5-thiadiazolidin-3-one 1,1-dioxide]",≤ 1 µM,≤ 1 µM
"O=C1CN(c2c(O)ccc(-c3cc(CCC4CCC4)n[nH]3)c2F)S(=O)(=O)N1 [Compound 339, 5-(3-(3-(2-cyclobutylethyl)-1H-pyrazol-5-yl)-2-fluoro-6-hydroxyphenyl)-1,2,5-thiadiazolidin-3-one 1,1-dioxide]",≤ 1 µM,≤ 1 µM
"CCCN1CCCC(c2ccc(O)c(N3CC(=O)NS3(=O)=O)c2F)C1 (stereo not drawn) [Compound 276, 5-(2-fluoro-6-hydroxy-3-(1-propylpiperidin-3-yl)phenyl)-1,2,5-thiadiazolidin-3-one 1,1-dioxide]",> 1 µM,≤ 1 µM
"CC1C=C(c2ccc(O)c(N3CC(=O)NS3(=O)=O)c2F)CN1 (stereo not drawn) [Compound 282, 5-(2-fluoro-6-hydroxy-3-(5-methyl-2,5-dihydro-1H-pyrrol-3-yl)phenyl)-1,2,5-thiadiazolidin-3-one 1,1-dioxide]",≤ 1 µM,≤ 1 µM
"N#CCn1nc(-c2ccc(O)c(N3CC(=O)NS3(=O)=O)c2F)cc1C1CC1 [Compound 349, 2-(5-cyclopropyl-3-(3-(1,1-dioxido-4-oxo-1,2,5-thiadiazolidin-2-yl)-2-fluoro-4-hydroxyphenyl)-1H-pyrazol-1-yl)acetonitrile]",≤ 1 µM,≤ 1 µM
"CC(C)CCN1CCC=C(c2ccc(O)c(N3CC(=O)NS3(=O)=O)c2F)C1 [Compound 210, 5-(2-fluoro-6-hydroxy-3-(1-isopentyl-1,2,5,6-tetrahydropyridin-3-yl)phenyl)-1,2,5-thiadiazolidin-3-one 1,1-dioxide]",≤ 1 µM,≤ 1 µM
"CC(C)CCn1cc(-c2ccc(O)c(N3CC(=O)NS3(=O)=O)c2F)cn1 [Compound 203, 5-(2-fluoro-6-hydroxy-3-(1-isopentyl-1H-pyrazol-4-yl)phenyl)-1,2,5-thiadiazolidin-3-one 1,1-dioxide]",≤ 1 µM,≤ 1 µM
"Cn1cc(-c2ccc(O)c(N3CC(=O)NS3(=O)=O)c2F)c(F)n1 [Compound 110, 5-(2-fluoro-3-(3-fluoro-1-methyl-1H-pyrazol-4-yl)-6-hydroxyphenyl)-1,2,5-thiadiazolidin-3-one 1,1-dioxide]",≤ 1 µM,≤ 1 µM
"CC(C)(C)n1cc(-c2ccc(O)c(N3CC(=O)NS3(=O)=O)c2F)cn1 [Compound 293, 5-(3-(1-(tert-butyl)-1H-pyrazol-4-yl)-2-fluoro-6-hydroxyphenyl)-1,2,5-thiadiazolidin-3-one 1,1-dioxide]",≤ 1 µM,≤ 1 µM
"O=C1CN(c2c(O)ccc(-c3cnn(Cc4cccc(F)c4)c3)c2F)S(=O)(=O)N1 [Compound 222, 5-(2-fluoro-3-(1-(3-fluorobenzyl)-1H-pyrazol-4-yl)-6-hydroxyphenyl)-1,2,5-thiadiazolidin-3-one 1,1-dioxide]",≤ 1 µM,≤ 1 µM
"N#Cc1ccc(-n2cnc(-c3ccc(O)c(N4CC(=O)NS4(=O)=O)c3F)c2)cc1 [Compound 427, 4-(4-(3-(1,1-dioxido-4-oxo-1,2,5-thiadiazolidin-2-yl)-2-fluoro-4-hydroxyphenyl)-1H-imidazol-1-yl)benzonitrile]",≤ 1 µM,≤ 1 µM
"CCn1cc(-c2ccc(O)c(N3CC(=O)NS3(=O)=O)c2F)c(F)n1 [Compound 506, 5-(3-(1-ethyl-3-fluoro-1H-pyrazol-4-yl)-2-fluoro-6-hydroxyphenyl)-1,2,5-thiadiazolidin-3-one 1,1-dioxide]",≤ 1 µM,≤ 1 µM
"O=C1CN(c2c(O)ccc(C3=CCN(CC(F)(F)F)CC3)c2F)S(=O)(=O)N1 [Compound 393, 5-(2-fluoro-6-hydroxy-3-(1-(2,2,2-trifluoroethyl)-1,2,3,6-tetrahydropyridin-4-yl)phenyl)-1,2,5-thiadiazolidin-3-one 1,1-dioxide]",≤ 1 µM,≤ 1 µM
"O=C1CN(c2c(O)ccc(-c3cc(N4CCC4)n[nH]3)c2F)S(=O)(=O)N1 [Compound 417, 5-(3-(3-(azetidin-1-yl)-1H-pyrazol-5-yl)-2-fluoro-6-hydroxyphenyl)-1,2,5-thiadiazolidin-3-one 1,1-dioxide]",≤ 1 µM,≤ 1 µM
"O=C1CN(c2c(O)ccc(-c3cnn(C(=O)N4CC(F)(F)C4)c3)c2F)S(=O)(=O)N1 [Compound 505, 5-(3-(1-(3,3-difluoroazetidine-1-carbonyl)-1H-pyrazol-4-yl)-2-fluoro-6-hydroxyphenyl)-1,2,5-thiadiazolidin-3-one 1,1-dioxide]",≤ 1 µM,≤ 1 µM
